Tested on: 439559-082-T-J2-PDC spheroid viability
Assay: Anticancer human tumor 439559-082-T-J2-PDC patient-derived colon adenocarcinoma cell line growth inhibition [POLQ]
Conditions: spheroids with HUVEC and MSC; for IC50: curve of first compound; for viability, T/C: stronger effect = lower value
How it was run: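 Patient-derived tumour cells were co-cultured with HUVEC and mesenchymal stem cells as multicellular spheroids at 37 °C. They were treated with POLQ inhibitors (novobiocin, ART-558, RP6685) alone or combined with other agents. Top concentrations were at or near clinical Cmax (otherwise 10 microM; SN-38 at 1 microM), decreasing in half-log steps.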

[1] = second compound 0.0316 µM, first compound 0.0316 µM
[2] = second compound 0.0316 µM, first compound 0.1 µM
[3] = second compound 0.0316 µM, first compound 0.316 µM
[4] = second compound 0.0316 µM, first compound 1 µM
[5] = second compound 0.0316 µM, first compound 3.16 µM
[6] = second compound 0.0316 µM, first compound 10 µM
[7] = second compound 0.1 µM, first compound 0.0316 µM
[8] = second compound 0.1 µM, first compound 0.1 µM
[9] = second compound 0.1 µM, first compound 0.316 µM
[10] = second compound 0.1 µM, first compound 1 µM
[11] = second compound 0.1 µM, first compound 3.16 µM
[12] = second compound 0.1 µM, first compound 10 µM
[13] = second compound 0.316 µM, first compound 0.0316 µM
[14] = second compound 0.316 µM, first compound 0.1 µM
[15] = second compound 0.316 µM, first compound 0.316 µM
[16] = second compound 0.316 µM, first compound 1 µM
[17] = second compound 0.316 µM, first compound 3.16 µM
[18] = second compound 0.316 µM, first compound 10 µM
[19] = second compound 1 µM, first compound 0.0316 µM
[20] = second compound 1 µM, first compound 0.1 µM
[21] = second compound 1 µM, first compound 0.316 µM
[22] = second compound 1 µM, first compound 1 µM
[23] = second compound 1 µM, first compound 3.16 µM
[24] = second compound 1 µM, first compound 10 µM
[25] = second compound 3.16 µM, first compound 0.0316 µM
[26] = second compound 3.16 µM, first compound 0.1 µM
[27] = second compound 3.16 µM, first compound 0.316 µM
[28] = second compound 3.16 µM, first compound 1 µM
[29] = second compound 3.16 µM, first compound 3.16 µM
[30] = second compound 3.16 µM, first compound 10 µM
[31] = second compound 10 µM, first compound 0.0316 µM
[32] = second compound 10 µM, first compound 0.1 µM
[33] = second compound 10 µM, first compound 0.316 µM
[34] = second compound 10 µM, first compound 1 µM
[35] = second compound 10 µM, first compound 3.16 µM
[36] = second compound 10 µM, first compound 10 µM
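Further: spheroids exposed to compounds for seven days before readout.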
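Wherever viability, T/C is given: 100% = DMSO vehicle control viability.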

**Q.** What does the source list for `COc1cc2cc(C(=O)CCC(=O)O)sc2cc1OC` + COC1C(OC(N)=O)C(O)C(Oc2ccc3c(O)c(NC(=O)c4ccc(O)c(CC=C(C)C)c4)c(=O)oc3c2C)OC1(C)C?
**A.** IC50 (second compound 0.0316 µM): > 10 µM; IC50 (second compound 0.1 µM): > 10 µM; IC50 (second compound 0.316 µM): > 10 µM; IC50 (second compound 1 µM): > 10 µM; IC50 (second compound 3.16 µM): > 10 µM; IC50 (second compound 10 µM): > 10 µM; viability, T/C [1]: 94%; viability, T/C [2]: 96.2%; viability, T/C [3]: 90.1%; viability, T/C [4]: 92.3%; viability, T/C [5]: 100%; viability, T/C [6]: 95.2%; viability, T/C [7]: 94.1%; viability, T/C [8]: 103%; viability, T/C [9]: 103%; viability, T/C [10]: 95.7%; viability, T/C [11]: 111%; viability, T/C [12]: 98.1%; viability, T/C [13]: 98.6%; viability, T/C [14]: 99.1%; viability, T/C [15]: 96.2%; viability, T/C [16]: 97.8%; viability, T/C [17]: 97.1%; viability, T/C [18]: 93.2%; viability, T/C [19]: 98.1%; viability, T/C [20]: 99.3%; viability, T/C [21]: 98.8%; viability, T/C [22]: 94.7%; viability, T/C [23]: 96.1%; viability, T/C [24]: 91.3%; viability, T/C [25]: 99.1%; viability, T/C [26]: 99.5%; viability, T/C [27]: 84.7%; viability, T/C [28]: 95.6%; viability, T/C [29]: 98%; viability, T/C [30]: 89.5%; viability, T/C [31]: 99%; viability, T/C [32]: 96.9%; viability, T/C [33]: 97.9%; viability, T/C [34]: 95.9%; viability, T/C [35]: 111%; viability, T/C [36]: 89.6%

**Q.** What does the source list for `COc1cccc2c1C(=O)c1c(O)c3c(c(O)c1C2=O)CC(O)(C(=O)CO)CC3OC1CC(N)C(O)C(C)O1` (stereo unspecified) + COC1C(OC(N)=O)C(O)C(Oc2ccc3c(O)c(NC(=O)c4ccc(O)c(CC=C(C)C)c4)c(=O)oc3c2C)OC1(C)C?
**A.** IC50 (second compound 0.0316 µM): 9.87 µM; IC50 (second compound 0.1 µM): > 10 µM; IC50 (second compound 0.316 µM): 6.36 µM; IC50 (second compound 1 µM): 9.5 µM; IC50 (second compound 3.16 µM): 7.79 µM; IC50 (second compound 10 µM): 7.69 µM; viability, T/C [1]: 94.1%; viability, T/C [2]: 102%; viability, T/C [3]: 88.1%; viability, T/C [4]: 70%; viability, T/C [5]: 64.5%; viability, T/C [6]: 47.9%; viability, T/C [7]: 105%; viability, T/C [8]: 108%; viability, T/C [9]: 82.9%; viability, T/C [10]: 68.2%; viability, T/C [11]: 59.9%; viability, T/C [12]: 49.6%; viability, T/C [13]: 97.7%; viability, T/C [14]: 98.8%; viability, T/C [15]: 77.3%; viability, T/C [16]: 70.2%; viability, T/C [17]: 59.7%; viability, T/C [18]: 44.3%; viability, T/C [19]: 98.8%; viability, T/C [20]: 104%; viability, T/C [21]: 84.7%; viability, T/C [22]: 65.8%; viability, T/C [23]: 56.1%; viability, T/C [24]: 47.7%; viability, T/C [25]: 104%; viability, T/C [26]: 98.9%; viability, T/C [27]: 85.2%; viability, T/C [28]: 66.4%; viability, T/C [29]: 61.8%; viability, T/C [30]: 46.2%; viability, T/C [31]: 95.3%; viability, T/C [32]: 105%; viability, T/C [33]: 85.9%; viability, T/C [34]: 67.5%; viability, T/C [35]: 61.4%; viability, T/C [36]: 45.4%

**Q.** `Cn1ncnc1[C@H]1c2n[nH]c(=O)c3cc(F)cc(c23)N[C@@H]1c1ccc(F)cc1` + Nc1ccc(C#CCN(C(=O)Cc2ncc(C(F)(F)F)cc2C(F)(F)F)c2ccc(F)cc2)nn1 was tested. Which IC50 (second compound 0.0316 µM) did it give?
**A.** The IC50 was over 0.1 µM.

**Q.** What about the IC50 (second compound 0.1 µM) of the same molecule?
**A.** Its IC50 is over 0.1 µM.

**Q.** What about the IC50 (second compound 0.316 µM) of the same molecule?
**A.** Its IC50 is over 0.1 µM.

**Q.** What about the IC50 (second compound 1 µM) of the same molecule?
**A.** The IC50 was over 0.1 µM.

**Q.** And the IC50 (second compound 3.16 µM)?
**A.** The IC50 was over 0.1 µM.

**Q.** What about the IC50 (second compound 10 µM) of the same molecule?
**A.** Its IC50 is over 0.1 µM.

**Q.** And the viability, T/C (second compound 0.0316 µM, first compound 0.000316 µM)?
**A.** The viability, T/C was 91.8%.

**Q.** What about the viability, T/C (second compound 0.0316 µM, first compound 0.001 µM) of the same molecule?
**A.** The viability, T/C was 104%.

**Q.** What about the viability, T/C (second compound 0.0316 µM, first compound 0.00316 µM) of the same molecule?
**A.** Its viability, T/C is 89.9%.

**Q.** And the viability, T/C (second compound 0.0316 µM, first compound 0.01 µM)?
**A.** Its viability, T/C is 103%.

**Q.** What about the viability, T/C [1] of the same molecule?
**A.** The viability, T/C was 101%.

**Q.** And the viability, T/C [2]?
**A.** Its viability, T/C is 91.7%.

**Q.** What about the viability, T/C (second compound 0.1 µM, first compound 0.000316 µM) of the same molecule?
**A.** Its viability, T/C is 103%.

**Q.** And the viability, T/C (second compound 0.1 µM, first compound 0.001 µM)?
**A.** Its viability, T/C is 88.9%.

**Q.** And the viability, T/C (second compound 0.1 µM, first compound 0.00316 µM)?
**A.** Its viability, T/C is 86.6%.

**Q.** And the viability, T/C (second compound 0.1 µM, first compound 0.01 µM)?
**A.** Its viability, T/C is 93.2%.

**Q.** What about the viability, T/C [7] of the same molecule?
**A.** Its viability, T/C is 93.1%.

**Q.** And the viability, T/C [8]?
**A.** Its viability, T/C is 89.1%.

**Q.** What about the viability, T/C (second compound 0.316 µM, first compound 0.000316 µM) of the same molecule?
**A.** The viability, T/C was 99.4%.

**Q.** What about the viability, T/C (second compound 0.316 µM, first compound 0.001 µM) of the same molecule?
**A.** Its viability, T/C is 112%.

**Q.** What about the viability, T/C (second compound 0.316 µM, first compound 0.00316 µM) of the same molecule?
**A.** Its viability, T/C is 90.2%.

**Q.** And the viability, T/C (second compound 0.316 µM, first compound 0.01 µM)?
**A.** Its viability, T/C is 94.6%.

**Q.** And the viability, T/C [13]?
**A.** The viability, T/C was 99.1%.

**Q.** What about the viability, T/C [14] of the same molecule?
**A.** Its viability, T/C is 90%.

**Q.** And the viability, T/C (second compound 1 µM, first compound 0.000316 µM)?
**A.** Its viability, T/C is 111%.

**Q.** And the viability, T/C (second compound 1 µM, first compound 0.001 µM)?
**A.** Its viability, T/C is 105%.

**Q.** What about the viability, T/C (second compound 1 µM, first compound 0.00316 µM) of the same molecule?
**A.** Its viability, T/C is 104%.

**Q.** What about the viability, T/C (second compound 1 µM, first compound 0.01 µM) of the same molecule?
**A.** Its viability, T/C is 102%.

**Q.** And the viability, T/C [19]?
**A.** Its viability, T/C is 94.3%.

**Q.** What about the viability, T/C [20] of the same molecule?
**A.** The viability, T/C was 102%.

**Q.** What about the viability, T/C (second compound 3.16 µM, first compound 0.000316 µM) of the same molecule?
**A.** Its viability, T/C is 85.2%.

**Q.** And the viability, T/C (second compound 3.16 µM, first compound 0.001 µM)?
**A.** Its viability, T/C is 106%.

**Q.** And the viability, T/C (second compound 3.16 µM, first compound 0.00316 µM)?
**A.** Its viability, T/C is 103%.

**Q.** What about the viability, T/C (second compound 3.16 µM, first compound 0.01 µM) of the same molecule?
**A.** The viability, T/C was 96.2%.

**Q.** And the viability, T/C [25]?
**A.** Its viability, T/C is 99.4%.

**Q.** And the viability, T/C [26]?
**A.** Its viability, T/C is 94.2%.

**Q.** What about the viability, T/C (second compound 10 µM, first compound 0.000316 µM) of the same molecule?
**A.** Its viability, T/C is 93.1%.

**Q.** And the viability, T/C (second compound 10 µM, first compound 0.001 µM)?
**A.** Its viability, T/C is 122%.

**Q.** What about the viability, T/C (second compound 10 µM, first compound 0.00316 µM) of the same molecule?
**A.** Its viability, T/C is 87.8%.

**Q.** And the viability, T/C (second compound 10 µM, first compound 0.01 µM)?
**A.** The viability, T/C was 85.4%.

**Q.** What about the viability, T/C [31] of the same molecule?
**A.** Its viability, T/C is 101%.

**Q.** And the viability, T/C [32]?
**A.** The viability, T/C was 112%.

— PubChem BioAssay AID1963841 (Molecular Pharmacology Branch, DTP, NCI, 2024)
